Data published in PMC10165273, “Itch receptor MRGPRX4 interacts with the receptor activity–modifying proteins” (The Journal of Biological Chemistry, 2023).
Values joined by “and” are separate entries in the source; they are usually repeats but may differ in a detail not shown here. Identical values can stand only once. Like-named read-outs stand apart in the source and are kept apart here.

Biological target: T1, MRGPRX4 (Homo sapiens, UniProt Q96LA9)
T1 construct: expressed in transfected cells; host or cells: HEK293T
Assay: IP1 accumulation HTRF assay, MRGPRX4
Type: cell-based
Design: key to IP1 Basal / IP1 accumulation with YM (Figure 1c) / response to agonist, MRGPRX4 / IP1 accumulation: % IP1: unstimulated mock-transfected = 0%, fully stimulated MRGPRX4 = 100%
Details: for activation at 100 µM / activation at 20 µM / activation at 4 µM / activation at 0.8 µM / activation at […] / activation at 0.032 µM: 2 h, read-out: IP1 accumulation (normalized); for activation at 100 µM: log [nateglinide] (M) -4; for activation at 20 µM: log [nateglinide] (M) -4.69897; for activation at 4 µM: log [nateglinide] (M) -5.39794; for activation at 0.8 µM: log [nateglinide] (M) -6.09691; for activation at […]: log [nateglinide] (M) -6.79588; for activation at 0.032 µM: log [nateglinide] (M) -7.49485; for normalized IP1 accumulation: HA-MRGX4-1D4

[1] = Dox 40 ng/mL, Supplementary Figure 5b
[2] = Dox 40 ng/mL, Supplementary Figure 5c
[3] = Dox 1100 ng/mL, Supplementary Figure 5a
[4] = Dox 1100 ng/mL, Supplementary Figure 5b
[5] = Dox 1100 ng/mL, Supplementary Figure 5c
[6] = Dox 3300 ng/mL, Supplementary Figure 5a
[7] = Dox 3300 ng/mL, Supplementary Figure 5b
[8] = Dox 3300 ng/mL, Supplementary Figure 5c
[9] = MRGPRX4 (2pg), Dox 3300ng/mL, Supplementary Figure 5b
[10] = MRGPRX4, Supplementary Figure 5d-g
[11] = Dox 13 ng/mL, Supplementary Figure 5a
[12] = Dox 13 ng/mL, Supplementary Figure 5c
[13] = Dox 40 ng/mL, Supplementary Figure 5a

T1 sequence (Q96LA9 whole entry): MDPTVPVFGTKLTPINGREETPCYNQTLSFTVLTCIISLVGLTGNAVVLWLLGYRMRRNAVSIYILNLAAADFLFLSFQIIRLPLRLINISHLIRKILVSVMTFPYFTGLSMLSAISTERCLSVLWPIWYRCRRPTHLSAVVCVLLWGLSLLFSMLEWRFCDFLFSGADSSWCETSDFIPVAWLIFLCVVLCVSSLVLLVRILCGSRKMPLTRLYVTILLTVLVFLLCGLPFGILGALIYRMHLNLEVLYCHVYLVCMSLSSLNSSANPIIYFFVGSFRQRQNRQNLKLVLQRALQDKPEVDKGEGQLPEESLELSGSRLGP

**Q.** What does the source list for `CC(C)[C@H]1CC[C@H](C(=O)N[C@H](Cc2ccccc2)C(=O)O)CC1` [Nateglinide]?
**A.** activation at 100 µM [1]: 17.6%; activation at 100 µM [2]: 58%; activation at 100 µM [3]: 97.1%; activation at 100 µM [4]: 25.8%; activation at 100 µM [5]: 81.1%; activation at 100 µM [6]: 100%; activation at 100 µM [7]: 32.5%; activation at 100 µM [8]: 100%; activation at 100 µM [9]: 100%; activation at 100 µM [10]: 100%; activation at 100 µM (MRGPRX4 no dox, Supplementary Figure 5d-g): 1.03%; activation at 100 µM (No Dox, Supplementary Figure 5a): 17%; activation at 100 µM (No Dox, Supplementary Figure 5c): 17%; activation at 20 µM [11]: 62.9%; activation at 20 µM (Dox 13 ng/mL, Supplementary Figure 5b): 6.04%; activation at 20 µM [12]: 25.4%; activation at 20 µM [13]: 71.8%; activation at 20 µM [1]: 8.95%; activation at 20 µM [2]: 33.6%; activation at 20 µM [3]: 83.3%; activation at 20 µM [4]: 17.4%; activation at 20 µM [5]: 57.5%; activation at 20 µM [6]: 86.8%; activation at 20 µM [7]: 23.5%; activation at 20 µM [8]: 74.7%; activation at 20 µM [9]: 86.8%; activation at 20 µM [10]: 96.1%; activation at 4 µM [11]: 29.5%; activation at 4 µM [12]: 4.86%; activation at 4 µM [13]: 32.9%; activation at 4 µM [2]: 7.47%; activation at 4 µM [3]: 46.5%; activation at 4 µM [4]: 4.19%; activation at 4 µM [5]: 20.2%; activation at 4 µM [6]: 44%; activation at 4 µM [7]: 8.69%; activation at 4 µM [8]: 32.8%; activation at 4 µM [9]: 44%; activation at 4 µM [10]: 56.6%; activation at 0.8 µM [11]: 10.1%; activation at 0.8 µM [13]: 12.5%; activation at 0.8 µM [3]: 19.7%; activation at 0.8 µM [5]: 3.18%; activation at 0.8 µM [6]: 19.9%; activation at 0.8 µM [8]: 10.1%; activation at 0.8 µM [9]: 19.9%; activation at 0.8 µM [10]: 23.8%; activation at […] [11]: 5.08%; activation at […] [13]: 6.44%; activation at […] [3]: 11.5%; activation at […] [6]: 11.6%; activation at […] [8]: 7.74%; activation at […] [9]: 11.6%; activation at […] [10]: 11.3%; activation at 0.032 µM [11]: 4.57%; activation at 0.032 µM [13]: 5.36%; activation at 0.032 µM [3]: 10.3%; activation at 0.032 µM [6]: 10.9%; activation at 0.032 µM [8]: 3.46%; activation at 0.032 µM [9]: 10.9%; activation at 0.032 µM [10]: 13.6%; efficacy (Figure 4a bottom, MRGPRX4 alone (reference = 100), individual replicates): 100; Emax (Figure 4a bottom, MRGPRX4 alone (reference = 100), individual replicates, read-out: efficacy): 100%; EC50 (Figure 4a top, MRGPRX4 alone (no RAMP), individual replicates, read-out: potency (converted)): 7.29 µM and 10.3 µM and 7.1 µM; response to agonist, MRGPRX4 (Figure 4c-f, agonist 100µM, MRGPRX4 alone (reference = 100)): 100; normalized IP1 accumulation (log [agonist] (M) -4): 81.552 and 83.6202; normalized IP1 accumulation (log [agonist] (M) -4.69897): 71.4189 and 62.4618; normalized IP1 accumulation (log [agonist] (M) -5.39794): 34.1012 and 34.3253; normalized IP1 accumulation (log [agonist] (M) -6.09691): 18.0339 and 19.9037; normalized IP1 accumulation (log [agonist] (M) -6.79588): 15.3353 and 14.0745; normalized IP1 accumulation (log [agonist] (M) -7.49485): 14.2615 and 16.0131; Emax (HEK-293T, MRGPRX4 (Fig. 1A), HEK293T, normalized to 100 μM nateglinide, read-out: IP1 Emax): 103%; Emax (HEK-293T, MRGPRX4 (Fig. 1A), HEK293T, normalized to 100 μM nateglinide, read-out: IP1 span): 87.6%; Emax (MRGPRX4 0.125 pg DNA/cell, individual experiments, read-out: efficacy (Figure 1b bottom)): 77.3%; EC50 (MRGPRX4 0.125 pg DNA/cell, individual experiments, read-out: potency (Figure 1b top) (converted)): 15.9 µM and 12.3 µM and 12.6 µM; Emax (MRGPRX4 0.25 pg DNA/cell, individual experiments, read-out: efficacy (Figure 1b bottom)): 81.4%
